{"source": "paper PMC6277767", "about": "“Broad and Region-Specific Impacts of the Synthetic Cannabinoid CP 55,940 in Adolescent and Adult Female Mouse Brains” (Frontiers in Molecular Neuroscience, 2018)", "system": "CD1 female mouse brain lipidome", "test": "Brain-region lipid levels (HPLC/MS/MS lipidomics) 2 h after single i.p. 3 mg/kg CP 55,940 vs vehicle", "assay_type": "in vivo", "set-up": "N-arachidonoyl phenylalanine level, Mean / N-stearoyl tryptophan level, Mean / N-stearoyl proline level, Mean / N-stearoyl leucine level, Mean / N-stearoyl phenylalanine level, Mean / N-stearoyl serine level, Mean / N-stearoyl methionine level, Mean: unit: moles per gram", "conditions": "hippocampus", "method": "The Bloomington Institutional Animal Care and Use Committee of Indiana University reviewed and approved the animal procedures. Female mice from the CD1 strain were utilized to match our study examining THC’s effects on the brain lipidome ([Leishman et al., 2018]). Mice were given a single i.p. injection of either 3 mg/kg CP or 1:1:18 cremophor:ethanol:saline vehicle (please refer to the section “3 mg/kg CP Is Relevant for Synthetic Cannabinoid Abuse and Has Stronger Effects on the Female Mouse Brain Lipidome During Adolescence” for a justification of dose and use of female mice). Three different age groups were given injections: PND 35 and PND 50 adolescents, and adult mice (PND 113). At least eight mice in each age group received CP and at least eight received vehicle. Matching the THC study time course ([Leishman et al., 2018]), mice were sacrificed via rapid decapitation 2 h after injection. Brains were immediately removed and flash-frozen in liquid nitrogen, and then stored at -80°C until dissections were performed. Brains were dissected on an ice-cold dissection plate into the following regions: STR, HIPP, CER, THAL, CTX, HYP, MID, and STEM. These abbreviations for these brain areas will be used exclusively when discussing the results generated by these specific dissections. Each dissected area was immediately placed in liquid nitrogen and then stored at -80°C until used for lipid extraction.\nTissue extracts were performed as previously described ([Bradshaw et al., 2006]; [Stuart et al., 2013]; [Raboune et al., 2014]; [Leishman et al., 2016a],[b], [2017], [2018]). First, samples were shock frozen in liquid nitrogen, weighed, and transferred to a centrifuge tube. The mass of the largest sample was multiplied by 50 to determine how many milliliters of HPLC-grade methanol (Fisher, Fair Lawn, NJ, United States) to add. Then, samples were spiked with 500 pmol deuterium-labeled NAGly (d8NAGly; Cayman Chemical, Ann Arbor, MI, United States). Samples were placed on ice in darkness for 2 h then individually homogenized and centrifuged at 19,000 × g for 20 min at 20°C. Supernatants were diluted with HPLC water (purified in house) to make a solution of 75% water, 25% supernatant. Lipids were partially purified on C18 solid phase extraction columns (Agilent, Palo Alto, CA, United States). A series of four elutions with 1.5 mL of 60%, 75%, 85%, and 100% methanol were collected ([Stuart et al., 2013]; [Leishman et al., 2016a],[b], [2018]).\nAs previously described ([Bradshaw et al., 2006]; [Tan et al., 2006]; [Smoum et al., 2010]; [Stuart et al., 2013]; [Tortoriello et al., 2013]; [Raboune et al., 2014]; [Leishman et al., 2016a],[b], [2017], [2018]), samples were analyzed using an Applied Biosystems API 3000 triple quadrupole mass spectrometer with electrospray ionization (Foster City, CA, United States). Using an Agilent XDB-C18 reversed phase analytical column and optimized mobile phase gradients, 20 μL from each elution were chromatographed. Two Shimadzu 10ADvp pumps (Columbia, MD, United States) provided the pressure for gradient elution. Mobile phase A: 20% methanol, 80% water (v/v) and 1 mM ammonium acetate (Sigma, St. Louis, MO, United States). Mobile phase B: 100% methanol, 1 mM ammonium acetate. Every method run began with 0% mobile phase B, reached 100% mobile phase B flowing at 0.2 mL/min, and gradually returned to 0% mobile phase B.\nThis screening library will be referred to as the lipidome when discussing data from this study. HPLC/MS/MS data were analyzed using Analyst software (Applied Biosystems) ([Bradshaw et al., 2006]; [Tan et al., 2006]; [Stuart et al., 2013]; [Tortoriello et al., 2013]; [Raboune et al., 2014]; [Leishman et al., 2016a],[b], [2017], [2018]). Chromatograms (Supplementary Figure 3) were generated by determining the retention time of analytes from the analytical column with a [M-1] or [M+1] parent peak and a fragmentation peak corresponding to the programmed values. […]", "key": {"[1]": {"conditions": "PND 35, 3 mg/kg CP 55,940 vs vehicle"}, "[2]": {"conditions": "PND 35 WT female mice, 3mg/kg CP 55,940"}}, "data": [{"smiles": "CCCCCCC(C)(C)c1ccc([C@@H]2C[C@H](O)CC[C@H]2CCCO)c(O)c1", "note": "[CP 55,940]", "values": [{"measurement": "THC level, Mean", "setting": "adult, 3 mg/kg CP 55,940", "value": "BDL"}, {"measurement": "phosphoLEA: Direction (relative to Veh)", "setting": "adult, 3 mg/kg CP 55,940", "value": "↑"}, {"measurement": "phosphoLEA: Magnitude (x Veh level)", "setting": "adult, 3 mg/kg CP 55,940", "value": 1.45, "unit": "x Veh level"}, {"measurement": "2-arachidonoyl glycerol: Direction", "setting": "[1]", "value": "↓"}, {"measurement": "2-arachidonoyl glycerol: Magnitude", "setting": "[1]", "value": 0.79}, {"measurement": "2-linoleoyl glycerol: Direction", "setting": "[1]", "value": "↓"}, {"measurement": "2-linoleoyl glycerol: Magnitude", "setting": "[1]", "value": 0.63}, {"measurement": "2-oleoyl glycerol: Direction", "setting": "[1]", "value": "↓"}, {"measurement": "2-oleoyl glycerol: Magnitude", "setting": "[1]", "value": 0.82}, {"measurement": "6-ketoPGF1α: Direction", "setting": "[1]", "value": "↑"}, {"measurement": "6-ketoPGF1α: Magnitude", "setting": "[1]", "value": 1.32}, {"measurement": "Arachidonic acid: Direction", "setting": "[1]", "value": "↓"}, {"measurement": "Arachidonic acid: Magnitude", "setting": "[1]", "value": 0.84}, {"measurement": "Linoleic acid: Direction", "setting": "[1]", "value": "↓"}, {"measurement": "Linoleic acid: Magnitude", "setting": "[1]", "value": 0.77}, {"measurement": "N-arachidonoyl GABA: Direction", "setting": "[1]", "value": "↓"}, {"measurement": "N-arachidonoyl GABA: Magnitude", "setting": "[1]", "value": 0.66}, {"measurement": "N-arachidonoyl alanine: Direction", "setting": "[1]", "value": "↓"}, {"measurement": "N-arachidonoyl alanine: Magnitude", "setting": "[1]", "value": 0.76}, {"measurement": "N-arachidonoyl ethanolamine: Direction", "setting": "[1]", "value": "↓"}, {"measurement": "N-arachidonoyl ethanolamine: Magnitude", "setting": "[1]", "value": 0.82}, {"measurement": "N-arachidonoyl glycine: Direction", "setting": "[1]", "value": "↓"}, {"measurement": "N-arachidonoyl glycine: Magnitude", "setting": "[1]", "value": 0.86}, {"measurement": "N-arachidonoyl phenylalanine: Direction", "setting": "[1]", "value": "↓"}, {"measurement": "N-arachidonoyl phenylalanine: Magnitude", "setting": "[1]", "value": 0.76}, {"measurement": "N-arachidonoyl serine: Direction", "setting": "[1]", "value": "↓"}, {"measurement": "N-arachidonoyl serine: Magnitude", "setting": "[1]", "value": 0.49}, {"measurement": "N-arachidonoyl taurine: Direction", "setting": "[1]", "value": "↓"}, {"measurement": "N-arachidonoyl taurine: Magnitude", "setting": "[1]", "value": 0.81}, {"measurement": "N-docosahexaenoyl GABA: Direction", "setting": "[1]", "value": "↓"}, {"measurement": "N-docosahexaenoyl GABA: Magnitude", "setting": "[1]", "value": 0.52}, {"measurement": "N-docosahexaenoyl alanine: Direction", "setting": "[1]", "value": "↓"}, {"measurement": "N-docosahexaenoyl alanine: Magnitude", "setting": "[1]", "value": 0.76}, {"measurement": "N-docosahexaenoyl ethanolamine: Direction", "setting": "[1]", "value": "↓"}, {"measurement": "N-docosahexaenoyl ethanolamine: Magnitude", "setting": "[1]", "value": 0.71}, {"measurement": "N-docosahexaenoyl glycine: Direction", "setting": "[1]", "value": "↓"}, {"measurement": "N-docosahexaenoyl glycine: Magnitude", "setting": "[1]", "value": 0.83}, {"measurement": "N-docosahexaenoyl leucine: Direction", "setting": "[1]", "value": "↑"}, {"measurement": "N-docosahexaenoyl leucine: Magnitude", "setting": "[1]", "value": 1.41}, {"measurement": "N-docosahexaenoyl serine: Direction", "setting": "[1]", "value": "↓"}, {"measurement": "N-docosahexaenoyl serine: Magnitude", "setting": "[1]", "value": 0.74}, {"measurement": "N-linoleoyl GABA: Direction", "setting": "[1]", "value": "↓"}, {"measurement": "N-linoleoyl GABA: Magnitude", "setting": "[1]", "value": 0.55}, {"measurement": "N-linoleoyl alanine: Direction", "setting": "[1]", "value": "↓"}, {"measurement": "N-linoleoyl alanine: Magnitude", "setting": "[1]", "value": 0.82}, {"measurement": "N-oleoyl GABA: Direction", "setting": "[1]", "value": "↓"}, {"measurement": "N-oleoyl GABA: Magnitude", "setting": "[1]", "value": 0.59}, {"measurement": "N-oleoyl alanine: Direction", "setting": "[1]", "value": "↓"}, {"measurement": "N-oleoyl alanine: Magnitude", "setting": "[1]", "value": 0.75}, {"measurement": "N-oleoyl ethanolamine: Direction", "setting": "[1]", "value": "↓"}, {"measurement": "N-oleoyl ethanolamine: Magnitude", "setting": "[1]", "value": 0.77}, {"measurement": "N-oleoyl glycine: Direction", "setting": "[1]", "value": "↓"}, {"measurement": "N-oleoyl glycine: Magnitude", "setting": "[1]", "value": 0.87}, {"measurement": "N-oleoyl methionine: Direction", "setting": "[1]", "value": "↓"}, {"measurement": "N-oleoyl methionine: Magnitude", "setting": "[1]", "value": 0.68}, {"measurement": "N-oleoyl valine: Direction", "setting": "[1]", "value": "↑"}, {"measurement": "N-oleoyl valine: Magnitude", "setting": "[1]", "value": 1.27}, {"measurement": "N-palmitoyl alanine: Direction", "setting": "[1]", "value": "↓"}, {"measurement": "N-palmitoyl alanine: Magnitude", "setting": "[1]", "value": 0.85}, {"measurement": "N-palmitoyl ethanolamine: Direction", "setting": "[1]", "value": "↓"}, {"measurement": "N-palmitoyl ethanolamine: Magnitude", "setting": "[1]", "value": 0.79}, {"measurement": "N-palmitoyl leucine: Direction", "setting": "[1]", "value": "↑"}, {"measurement": "N-palmitoyl leucine: Magnitude", "setting": "[1]", "value": 1.31}, {"measurement": "N-palmitoyl phenylalanine: Direction", "setting": "[1]", "value": "↑"}, {"measurement": "N-palmitoyl phenylalanine: Magnitude", "setting": "[1]", "value": 1.26}, {"measurement": "N-palmitoyl tyrosine: Direction", "setting": "[1]", "value": "↑"}, {"measurement": "N-palmitoyl tyrosine: Magnitude", "setting": "[1]", "value": 1.29}, {"measurement": "N-palmitoyl valine: Direction", "setting": "[1]", "value": "↑"}, {"measurement": "N-palmitoyl valine: Magnitude", "setting": "[1]", "value": 1.24}, {"measurement": "N-stearoyl GABA: Direction", "setting": "[1]", "value": "↓"}, {"measurement": "N-stearoyl GABA: Magnitude", "setting": "[1]", "value": 0.77}, {"measurement": "N-stearoyl alanine: Direction", "setting": "[1]", "value": "↓"}, {"measurement": "N-stearoyl alanine: Magnitude", "setting": "[1]", "value": 0.79}, {"measurement": "N-stearoyl glycine: Direction", "setting": "[1]", "value": "↓"}, {"measurement": "N-stearoyl glycine: Magnitude", "setting": "[1]", "value": 0.87}, {"measurement": "N-stearoyl valine: Direction", "setting": "[1]", "value": "↑"}, {"measurement": "N-stearoyl valine: Magnitude", "setting": "[1]", "value": 1.39}, {"measurement": "Oleic acid: Direction", "setting": "[1]", "value": "↓"}, {"measurement": "Oleic acid: Magnitude", "setting": "[1]", "value": 0.82}, {"measurement": "PGF2α: Direction", "setting": "[1]", "value": "↑"}, {"measurement": "PGF2α: Magnitude", "setting": "[1]", "value": 1.28}, {"measurement": "2-arachidonoyl glycerol level, Mean", "setting": "[2]", "value": "2.47E-10"}, {"measurement": "2-linoleoyl glycerol level, Mean", "setting": "[2]", "value": "1.2E-10"}, {"measurement": "2-oleoyl glycerol level, Mean", "setting": "[2]", "value": "9.43E-10"}, {"measurement": "2-palmitoyl glycerol level, Mean", "setting": "[2]", "value": "7.71E-10"}, {"measurement": "6-ketoPGF1α level, Mean", "setting": "[2]", "value": "1.92E-11"}, {"measurement": "11-OH-THC level, Mean", "setting": "[2]", "value": "BDL"}, {"measurement": "11-nor-9-carboxyTHC level, Mean", "setting": "[2]", "value": "BDL"}, {"measurement": "Arachidonic acid level, Mean", "setting": "[2]", "value": "4.25E-09"}, {"measurement": "Cannabidiol level, Mean", "setting": "[2]", "value": "BDL"}, {"measurement": "Linoleic acid level, Mean", "setting": "[2]", "value": "9.72E-10"}, {"measurement": "N- stearoyl valine level, Mean", "setting": "[2]", "value": "8.48E-13"}, {"measurement": "N-arachidonoyl GABA level, Mean", "setting": "[2]", "value": "2.17E-11"}, {"measurement": "N-arachidonoyl alanine level, Mean", "setting": "[2]", "value": "1.79E-11"}, {"measurement": "N-arachidonoyl dopamine level, Mean", "setting": "[2]", "value": "BDL"}, {"measurement": "N-arachidonoyl ethanolamine level, Mean", "setting": "[2]", "value": "4.75E-11"}, {"measurement": "N-arachidonoyl glycine level, Mean", "setting": "[2]", "value": "6.69E-11"}, {"measurement": "N-arachidonoyl methionine level, Mean", "setting": "[2]", "value": "PISSR"}, {"measurement": "N-arachidonoyl phenylalanine level, Mean", "setting": "[2]", "value": "1.21E-12"}, {"measurement": "N-arachidonoyl proline level, Mean", "setting": "[2]", "value": "BDL"}, {"measurement": "N-arachidonoyl serine level, Mean", "setting": "[2]", "value": "8.58E-12"}, {"measurement": "N-arachidonoyl taurine level, Mean", "setting": "[2]", "value": "2.18E-10"}]}]}
